Experimental data as given in ChEMBL document CHEMBL1938379, “Capture hydrolysis signals in the microsomal stability assay: molecular mechanisms of the alkyl ester drug and prodrug metabolism” (Bioorg Med Chem Lett, 2012).

Assay: Clearance in human liver microsomes at 1 uM measured after 60 mins by HPLC analysis
Conditions: liver microsomes

SMILES | microsomal CLint at 1 h, 1 µM
CCOC(=O)[C@H](CCc1ccccc1)N[C@@H](C)C(=O)N1[C@H](C(=O)O)C[C@@H]2CCC[C@@H]21 | 46.1 µL/min/mg
CCOC(=O)[C@H](CCc1ccccc1)N[C@@H](C)C(=O)N1Cc2ccccc2C[C@H]1C(=O)O | 8.5 µL/min/mg
CCOC(=O)[C@H](CCc1ccccc1)N[C@@H](C)C(=O)N1CC2(C[C@H]1C(=O)O)SCCS2 | < 8 µL/min/mg
CC1=C(C(=O)OC(C)C)C(c2cccc([N+](=O)[O-])c2)C(C(=O)OC2CN(C(c3ccccc3)c3ccccc3)C2)=C(N)N1 (centres undefined) [AZELNIDIPINE] | 33.9 µL/min/mg
CCOC(=O)[C@H](CCc1ccccc1)N[C@H]1CCc2ccccc2N(CC(=O)O)C1=O [BENAZEPRIL] | 52.5 µL/min/mg
CCOC(=O)COc1ccc2c(C)c(CCN(CC)CC)c(=O)oc2c1 [CHROMONAR] | > 300 µL/min/mg
CCOC(=O)COc1ccc2c(=O)cc(-c3ccccc3)oc2c1 [EFLOXATE] | > 300 µL/min/mg
COC(=O)[C@@H]1CC2=CC(=O)CC[C@]2(C)[C@@]23O[C@@H]2C[C@@]2(C)[C@@H](CC[C@@]24CCC(=O)O4)[C@H]13 [EPLERENONE] | 7.9 µL/min/mg
CCOC(=O)C1(c2ccccc2)CCCN(C)CC1 (centres undefined) [ETHOHEPTAZINE] | 22.6 µL/min/mg
CCOC(=O)/C=C1\SC(N2CCCCC2)C(=O)N1C (centres undefined) [ETOZOLIN] | 20.5 µL/min/mg
CCOC(=O)c1ncn2c1CN(C)C(=O)c1cc(F)ccc1-2 [FLUMAZENIL] | 10.6 µL/min/mg
COC(=O)C1=C(C)NC(C)=C(C(=O)OC(C)C)C1c1cccc2nonc12 (centres undefined) [ISRADIPINE] | > 300 µL/min/mg
CCOC(=O)C1=C(C)NC(C)=C(C(=O)OCC)C1c1ccccc1/C=C/C(=O)OC(C)(C)C [LACIDIPINE] | 99.2 µL/min/mg
COC(=O)C1=C(C)NC(C)=C(C(=O)OC(C)(C)CN(C)CCC(c2ccccc2)c2ccccc2)C1c1cccc([N+](=O)[O-])c1 (centres undefined) [LERCANIDIPINE] | 125 µL/min/mg
COC(=O)C1=C(C)NC(C)=C(C(=O)OCCN2CCN(C(c3ccccc3)c3ccccc3)CC2)C1c1cccc([N+](=O)[O-])c1 (centres undefined) [MANIDIPINE 6300] | 93.4 µL/min/mg
COC(=O)C(c1ccccc1)C1CCCCN1 (centres undefined) [METHYLPHENIDATE] | 11.1 µL/min/mg
CCOC(=O)[C@H](CCc1ccccc1)N[C@@H](C)C(=O)N1Cc2cc(OC)c(OC)cc2C[C@H]1C(=O)O [MOEXIPRIL] | < 8 µL/min/mg
COC(=O)C1=C(C#N)NC(C)=C(C(=O)OC(C)C)C1c1cccc([N+](=O)[O-])c1 (centres undefined) [NILVADIPINE] | 205 µL/min/mg
COCCOC(=O)C1=C(C)NC(C)=C(C(=O)OC(C)C)C1c1cccc([N+](=O)[O-])c1 (centres undefined) [NIMODIPINE] | > 300 µL/min/mg
COC(=O)C1=C(C)NC(C)=C(C(=O)OCC(C)C)C1c1ccccc1[N+](=O)[O-] (centres undefined) [NISOLDIPINE] | > 300 µL/min/mg
CCOC(=O)C1=C(C)NC(C)=C(C(=O)OC)C1c1cccc([N+](=O)[O-])c1 (centres undefined) [NITRENDIPINE] | 166 µL/min/mg
CCC[C@H](N[C@@H](C)C(=O)N1[C@H](C(=O)O)C[C@@H]2CCCC[C@@H]21)C(=O)OCC [PERINDOPRIL] | 10.7 µL/min/mg
COC(=O)[C@H]1[C@H]2C[C@@H]3c4[nH]c5cc(OC)ccc5c4CCN3C[C@H]2C[C@@H](OC(=O)c2cc(OC)c(OC)c(OC)c2)[C@@H]1OC [RESERPINE] | 18.3 µL/min/mg
CCOC(=O)[C@H](CCc1ccccc1)N[C@H]1CS[C@H](c2cccs2)CN(CC(=O)O)C1=O [TEMOCAPRIL] | 133 µL/min/mg
CCOC(=O)c1c(N)sc2c1CCN(Cc1ccccc1)C2 [TINORIDINE] | 71.2 µL/min/mg
CC[C@]12CCCN3CCc4c(n(c5ccccc45)[C@@](O)(C(=O)OC)C1)[C@@H]32 [VINCAMINE] | 66 µL/min/mg
C#C[C@H](CC(=O)OCC)NC(=O)CCC(=O)Nc1ccc(C(=N)N)cc1 [XEMILOFIBAN] | < 8 µL/min/mg
COC(=O)[C@@H]1[C@H]2C[C@H]3c4[nH]c5ccccc5c4CCN3C[C@@H]2CC[C@@H]1O [YOHIMBINE] | 34.4 µL/min/mg

Same assay, conditions: microsomes

SMILES | microsomal CLint at 1 h, 1 µM
COC(=O)[C@H](c1ccccc1Cl)N1CCc2sccc2C1 [CLOPIDOGREL] | > 300 µL/min/mg
